The source made the active and inactive calls. The rule behind the calls is not given here.
Columns and labels:
[1] = target: T1, Transcription intermediary factor 1-alpha (Homo sapiens, UniProt O15164); assay: Inhibition of N-terminal His6-SUMO-1-tagged recombinant human TRIM24 bromodomain expressed in Escherichia coli BL21(DE3)-R3-pRARE2 cells by Alpha Screen assay
T1 sequence (O15164 whole entry): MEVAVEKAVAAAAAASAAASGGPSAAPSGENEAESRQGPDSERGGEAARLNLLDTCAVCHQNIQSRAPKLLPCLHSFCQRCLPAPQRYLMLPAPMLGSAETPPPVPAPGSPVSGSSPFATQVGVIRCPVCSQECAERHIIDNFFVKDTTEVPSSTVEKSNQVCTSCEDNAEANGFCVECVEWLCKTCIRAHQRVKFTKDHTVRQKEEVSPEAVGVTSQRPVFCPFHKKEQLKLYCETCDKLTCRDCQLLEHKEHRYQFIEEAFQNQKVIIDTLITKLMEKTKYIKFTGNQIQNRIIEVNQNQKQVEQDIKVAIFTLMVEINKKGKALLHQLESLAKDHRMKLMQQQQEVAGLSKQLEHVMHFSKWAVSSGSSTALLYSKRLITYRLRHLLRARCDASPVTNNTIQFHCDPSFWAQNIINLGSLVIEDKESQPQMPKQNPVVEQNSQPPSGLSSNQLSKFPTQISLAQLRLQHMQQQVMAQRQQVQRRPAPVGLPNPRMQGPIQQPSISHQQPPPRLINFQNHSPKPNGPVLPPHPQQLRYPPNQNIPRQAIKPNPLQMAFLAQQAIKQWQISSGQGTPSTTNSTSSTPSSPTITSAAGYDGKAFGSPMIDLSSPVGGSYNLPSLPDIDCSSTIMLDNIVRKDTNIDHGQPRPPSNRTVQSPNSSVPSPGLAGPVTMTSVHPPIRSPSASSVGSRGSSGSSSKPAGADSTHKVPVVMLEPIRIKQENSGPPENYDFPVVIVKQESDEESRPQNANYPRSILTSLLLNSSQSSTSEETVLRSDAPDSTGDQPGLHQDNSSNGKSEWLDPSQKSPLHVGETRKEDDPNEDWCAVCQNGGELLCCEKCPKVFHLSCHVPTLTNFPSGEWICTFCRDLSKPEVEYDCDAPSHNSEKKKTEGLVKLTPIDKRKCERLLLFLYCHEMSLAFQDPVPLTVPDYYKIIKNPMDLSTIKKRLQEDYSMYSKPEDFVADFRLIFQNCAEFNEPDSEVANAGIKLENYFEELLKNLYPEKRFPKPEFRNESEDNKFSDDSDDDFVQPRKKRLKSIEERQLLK

[2] = target: T2, Bromodomain-containing protein 1 (Homo sapiens, UniProt O95696); assay: Binding affinity to BRPF2 BRD1 (unknown origin) by isothermal titration calorimetry
T2 sequence (O95696 whole entry): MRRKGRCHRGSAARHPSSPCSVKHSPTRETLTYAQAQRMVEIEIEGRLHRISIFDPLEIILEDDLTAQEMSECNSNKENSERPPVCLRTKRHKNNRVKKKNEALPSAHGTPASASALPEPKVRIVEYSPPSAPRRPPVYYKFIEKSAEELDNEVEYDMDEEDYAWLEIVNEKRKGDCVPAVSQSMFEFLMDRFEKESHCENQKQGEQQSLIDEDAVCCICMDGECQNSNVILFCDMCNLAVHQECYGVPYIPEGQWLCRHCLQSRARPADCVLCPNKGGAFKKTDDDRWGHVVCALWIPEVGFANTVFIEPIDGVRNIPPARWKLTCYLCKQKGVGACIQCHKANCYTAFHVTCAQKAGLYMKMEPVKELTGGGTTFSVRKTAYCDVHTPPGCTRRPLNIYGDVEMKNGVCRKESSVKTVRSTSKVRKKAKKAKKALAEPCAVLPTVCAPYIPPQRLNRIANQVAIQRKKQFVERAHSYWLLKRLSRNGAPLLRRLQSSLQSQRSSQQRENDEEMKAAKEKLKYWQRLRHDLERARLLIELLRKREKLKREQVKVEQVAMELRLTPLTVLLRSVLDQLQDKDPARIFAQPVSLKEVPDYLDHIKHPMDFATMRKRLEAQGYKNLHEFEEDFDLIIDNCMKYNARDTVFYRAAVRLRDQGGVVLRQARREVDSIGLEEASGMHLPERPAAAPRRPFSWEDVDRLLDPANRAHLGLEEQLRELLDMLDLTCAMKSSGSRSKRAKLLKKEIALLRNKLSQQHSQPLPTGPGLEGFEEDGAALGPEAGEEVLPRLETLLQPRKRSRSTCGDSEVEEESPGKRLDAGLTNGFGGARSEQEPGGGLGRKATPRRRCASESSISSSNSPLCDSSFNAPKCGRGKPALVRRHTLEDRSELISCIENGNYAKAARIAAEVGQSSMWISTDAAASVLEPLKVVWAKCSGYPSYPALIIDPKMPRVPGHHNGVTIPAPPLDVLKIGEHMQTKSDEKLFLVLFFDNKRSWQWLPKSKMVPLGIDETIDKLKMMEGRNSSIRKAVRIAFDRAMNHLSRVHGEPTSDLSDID

MCF7 = assay: Cytotoxicity against human MCF7 cells at 5x10'-5 M to 8x10'-8 M after 72 hrs by CellTiter-Glo assay; type: functional, cell-based
JJN-3 = assay: Cytotoxicity against human JJN-3 cells at 5x10'-5 M to 8x10'-8 M after 72 hrs by CellTiter-Glo assay; type: functional, cell-based
RKO = assay: Cytotoxicity against human RKO cells at 5x10'-5 M to 8x10'-8 M after 72 hrs by CellTiter-Glo assay; type: functional, cell-based
[3] = Cytotoxicity against human MM1S cells after 72 hrs by CellTiter-Glo assay; type: functional; conditions: MM1.S

IC50 [1]: 0.43 µM
Kd [2]: 1.13 µM
SMILES: COc1ccc(Oc2cc3c(cc2NS(=O)(=O)c2ccc(OC)c(OC)c2)n(C)c(=O)n3C)cc1
Activity (MCF7): inactive
Activity (JJN-3): inactive
Activity (RKO): inactive
GI50 [3]: > 10 µM

— ChEMBL document CHEMBL3769336, “Discovery of a Chemical Tool Inhibitor Targeting the Bromodomains of TRIM24 and BRPF” (J Med Chem, 2016)
